Laboratory results published in the supplement of paper PMC10331698.
± gives the standard deviation of the averaged measurements.

Experiments:
Assay in all cases: level (log10 ratio to DMSO vehicle control); higher = higher biomarker level / cell amount than vehicle control
[1] = compound: O=C(O)C(F)(F)C(F)(F)C(F)(F)OC(F)(C(F)(F)F)C(F)(F)F [Perfluoro-4-isopropoxybutanoic acid]; settings: in DMSO
Protocol: (§1)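 BioMAP Diversity Plus panel of 12 human primary cell co-culture systems (3C, 4H, LPS, SAg, BT, BF4T, BE3C, CASM3C, HDF3CGF, KF3CT, MyoF, Mphg). Compounds were added 1 h before stimulation and left for 24 h (MyoF 48 h; BT 72 h for soluble read-outs or 6 d for IgG). Biomarkers were read by ELISA, cytotoxicity by SRB, PBMC viability and proliferation by Alamar Blue. Each well value was divided by the mean of 8 DMSO control wells on the same plate and log10 transformed; duplicate blinded samples were tested at 4 concentrations.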

Perfluoropropanoic acid = compound: O=C(O)C(F)(F)C(F)(F)F [Perfluoropropanoic acid]; settings: in DMSO
Protocol: as §1

[2] = compound: O=C(O)C(F)(F)C(F)(F)C(F)(F)C(F)(F)C(F)(F)C(F)(F)C(F)(F)C(F)F [9-H-Perfluorononanoic acid]; settings: in DMSO
Protocol: as §1

[3] = compound: OCC(F)(F)OC(F)(F)C(F)(F)OC(F)(F)CO [1H,1H,8H,8H-Perfluoro-3,6-dioxaoctane-1,8-diol]; settings: in DMSO
Protocol: as §1

Perfluoropentanoic acid = compound: O=C(O)C(F)(F)C(F)(F)C(F)(F)C(F)(F)F [Perfluoropentanoic acid]; settings: in DMSO
Protocol: as §1

[4] = compound: O=C(O)C(F)(F)C(F)(F)C(F)F [4H-Perfluorobutanoic acid]; settings: in DMSO
Protocol: as §1

[5] = compound: OCCCC(F)(F)C(F)(F)C(F)(F)C(F)(F)C(F)(F)C(F)(F)C(F)(F)F [7:3 Fluorotelomer alcohol]; settings: 6700 nM; in DMSO
Protocol: as §1

Test System | level (log10) ([1]; 6700 nM) | level (log10) ([1]; 20000 nM) | level (log10) ([1]; 60000 nM) | level (log10) (Perfluoropropanoic acid; 6700 nM) | level (log10) (Perfluoropropanoic acid; 20000 nM) | level (log10) (Perfluoropropanoic acid; 60000 nM) | level (log10) ([2]; 6700 nM) | level (log10) ([2]; 20000 nM) | level (log10) ([2]; 60000 nM) | level (log10) ([3]; 6700 nM) | level (log10) ([3]; 20000 nM) | level (log10) ([3]; 60000 nM) | level (log10) (Perfluoropentanoic acid; 6700 nM) | level (log10) (Perfluoropentanoic acid; 20000 nM) | level (log10) (Perfluoropentanoic acid; 60000 nM) | level (log10) ([4]; 6700 nM) | level (log10) ([4]; 20000 nM) | level (log10) ([4]; 60000 nM) | level (log10) [5]
MyoF:PAI-I | -0.0035 ± 0.015 | -0.007 ± 0.0042 | 0.006 ± 0.018 | -0.0035 ± 0.013 | -0.0165 ± 0.0035 | -0.0035 ± 0.012 | -0.0075 ± 0.011 | 0.004 ± 0.0042 | -0.0025 ± 0.0092 | -0.008 ± 0.0099 | -0.008 ± 0.017 | 0.0025 ± 0.0078 | -0.0035 ± 0.00071 | 0.005 ± 0.0071 | 0.0075 ± 0.0021 | -0.0105 ± 0.019 | -0.023 ± 0.023 | -0.0095 ± 0.011 | 0.0015 ± 0.0035
BE3C:Keratin 8/18 | -0.0135 ± 0.0021 | -0.024 ± 0.0028 | 0.009 ± 0.013 | -0.0185 ± 0.0064 | -0.016 ± 0.028 | 0.017 ± 0.023 | -0.006 ± 0.0085 | 0.005 ± 0.0042 | -0.012 ± 0.018 | -0.0105 ± 0.0078 | -0.003 ± 0.016 | -0.0085 ± 0.013 | -0.006 ± 0.0057 | -0.011 ± 0.0071 | 0.0035 ± 0.032 | -0.017 ± 0.014 | -0.021 ± 0.011 | 0.0075 ± 0.00071 | 0.0155 ± 0.032
3C:CD106/VCAM-1 | 0.0135 ± 0.00071 | 0.006 ± 0.011 | 0.015 ± 0.02 | -0.025 ± 0.0014 | -0.0145 ± 0.005 | 0.004 ± 0.0014 | -0.025 ± 0.016 | -0.018 ± 0.035 | -0.0185 ± 0.04 | -0.0365 ± 0.021 | -0.0295 ± 0.019 | -0.016 ± 0.024 | 0.002 ± 0.023 | -0.0055 ± 0.021 | 0.0235 ± 0.015 | -0.0075 ± 0.04 | -0.0265 ± 0.005 | 0.006 ± 0.0028 | 0.005 ± 0.0057
CASM3C:LDLR | 0.012 ± 0.0014 | 0.017 ± 0.011 | 0 ± 0.0014 | -0.0845 ± 0.07 | -0.036 ± 0.054 | -0.022 ± 0.073 | -0.003 ± 0.018 | -0.005 ± 0.0042 | 0.009 ± 0.024 | 0.005 ± 0.0014 | 0.0055 ± 0.019 | 0.0235 ± 0.039 | -0.0085 ± 0.0064 | -0.0045 ± 0.0078 | -0.0095 ± 0.025 | -0.0785 ± 0.037 | -0.039 ± 0.0042 | -0.0235 ± 0.026 | 0.012 ± 0.0028
HDF3CGF:CXCL11/I-TAC | 0.002 ± 0.021 | 0.008 ± 0.0042 | -0.0025 ± 0.00071 | -0.0325 ± 0.032 | -0.018 ± 0.033 | -0.0215 ± 0.057 | -0.059 ± 0.0085 | -0.078 ± 0.0099 | -0.09 ± 0.021 | 0.0085 ± 0.00071 | 0.0055 ± 0.0064 | 0.014 ± 0.031 | -0.0085 ± 0.012 | -0.0065 ± 0.015 | 0.005 ± 0.054 | -0.0155 ± 0.071 | 0.003 ± 0.0071 | 0.0125 ± 0.0035 | -0.0445 ± 0.023
MyoF:Collagen III | -0.0095 ± 0.011 | -0.001 ± 0.0014 | 0.0025 ± 0.021 | 0.0165 ± 0.012 | 0.0135 ± 0.016 | 0.0385 ± 0.015 | -0.002 ± 0.0085 | -0.003 ± 0.0042 | -0.026 ± 0.018 | -0.0225 ± 0.015 | 0.001 | -0.012 ± 0.028 | -0.001 ± 0.0028 | 0.0055 ± 0.0021 | -0.001 ± 0.0085 | 0.022 ± 0.0099 | 0.0155 ± 0.0064 | 0.034 ± 0.014 | -0.0035 ± 0.012
lMphg:sIL-10 | -0.116 ± 0.018 | -0.04 ± 0.047 | -0.187 ± 0.031 | -0.0045 ± 0.016 | 0.008 ± 0.0099 | -0.042 ± 0.024 | -0.0465 ± 0.00071 | -0.0225 ± 0.04 | -0.642 ± 0.04 | -0.0295 ± 0.022 | -0.0355 ± 0.13 | 0.0065 ± 0.00071 | -0.017 ± 0.013 | -0.075 ± 0.025 | -0.0845 ± 0.05 | -0.0495 ± 0.096 | -0.0605 ± 0.054 | -0.019 ± 0.0014 | -0.0345 ± 0.032
3C:CD54/ICAM-1 | 0.0075 ± 0.016 | -0.0085 ± 0.022 | 0.0285 ± 0.0078 | -0.0365 ± 0.012 | -0.0085 ± 0.0064 | 0.017 ± 0.02 | -0.006 | -0.0055 ± 0.0092 | 0.008 ± 0.013 | -0.0015 ± 0.016 | -0.0005 ± 0.0064 | -0.0035 ± 0.011 | -0.0145 ± 0.03 | -0.028 ± 0.021 | -0.0075 ± 0.022 | -0.016 ± 0.0014 | -0.0105 ± 0.018 | 0.0025 ± 0.0092 | 0.013
HDF3CGF:CXCL8/IL-8 | 0.0015 ± 0.00071 | 0.0135 ± 0.0035 | 0.0035 ± 0.0021 | -0.0055 ± 0.0021 | 0.007 ± 0.011 | 0.017 ± 0.0057 | -0.0055 ± 0.0021 | -0.0055 ± 0.0064 | 0.0015 ± 0.0035 | 0.0115 ± 0.023 | 0.009 ± 0.024 | 0.015 ± 0.028 | 0.003 ± 0.0057 | -0.006 ± 0.0028 | 0.002 ± 0.023 | 0.001 ± 0.0014 | 0.0025 ± 0.0078 | 0.0095 ± 0.023 | -0.005 ± 0.0042
KF3CT:SRB | -0.009 ± 0.0071 | -0.013 ± 0.0028 | -0.007 ± 0.0071 | 0.005 ± 0.0071 | -0.005 ± 0.0028 | -0.003 | -0.0175 ± 0.005 | -0.019 ± 0.0014 | -0.032 ± 0.0042 | -0.002 ± 0.0057 | -0.0025 ± 0.0021 | 0.0075 ± 0.023 | -0.007 ± 0.0071 | -0.004 ± 0.0014 | 0.0055 ± 0.011 | -0.005 ± 0.0071 | -0.0065 ± 0.0064 | -0.008 ± 0.0014 | -0.002 ± 0.0071
lMphg:CD62E/E-Selectin | -0.011 ± 0.027 | 0.007 ± 0.038 | 0.0005 ± 0.039 | -0.008 ± 0.0057 | -0.004 ± 0.0099 | 0.0385 ± 0.0035 | -0.005 ± 0.037 | 0.0085 ± 0.035 | 0.0585 ± 0.021 | -0.0235 ± 0.019 | 0.004 ± 0.033 | -0.003 ± 0.03 | 0.012 ± 0.0057 | -0.008 ± 0.014 | 0.003 ± 0.042 | -0.012 ± 0.0028 | 0.0025 ± 0.0092 | 0.0145 ± 0.0064 | -0.005 ± 0.048
3C:CCL2/MCP-1 | -0.005 ± 0.016 | 0.001 ± 0.0071 | 0.0375 ± 0.018 | -0.041 ± 0.048 | -0.0145 ± 0.049 | 0.0435 ± 0.073 | -0.001 ± 0.021 | 0.0125 ± 0.0092 | 0.0415 ± 0.005 | 0.0005 ± 0.018 | 0.009 ± 0.0028 | 0.0145 ± 0.05 | -0.0105 ± 0.00071 | 0.0005 ± 0.0021 | 0.0215 ± 0.019 | -0.02 ± 0.061 | -0.006 ± 0.05 | 0.0215 ± 0.03 | 0.0045 ± 0.011
CASM3C:CD87/uPAR | -0.0225 ± 0.046 | -0.0265 ± 0.052 | 0.003 ± 0.014 | -0.0215 ± 0.019 | -0.008 ± 0.038 | 0.001 ± 0.013 | -0.001 ± 0.014 | 0.0045 ± 0.011 | 0.029 ± 0.0057 | 0.0135 ± 0.00071 | -0.0085 ± 0.0078 | -0.016 ± 0.0085 | -0.027 ± 0.052 | -0.031 ± 0.027 | -0.0175 ± 0.005 | -0.016 ± 0.013 | 0 ± 0.02 | 0.0055 ± 0.022 | -0.036 ± 0.057
HDF3CGF:M-CSF | -0.016 ± 0.0071 | -0.0135 ± 0.0078 | -0.0055 ± 0.005 | 0.0065 ± 0.067 | -0.042 ± 0.027 | -0.0295 ± 0.042 | -0.067 ± 0.0028 | -0.0835 ± 0.011 | -0.05 ± 0.027 | -0.0025 ± 0.0078 | -0.01 ± 0.0071 | 0.01 ± 0.0099 | 0.0025 ± 0.019 | -0.018 ± 0.0099 | 0.004 ± 0.0028 | -0.0305 ± 0.035 | -0.013 ± 0.033 | -0.015 ± 0.041 | 0.0035 ± 0.044
